# ChEMBL document CHEMBL5154726, “Identification of triazolopyridine derivatives as a new class of AhR agonists and evaluation of anti-psoriasis effect in a mouse model” (Eur J Med Chem, 2022)
# Activity calls are given as the source filed them. No cut-off for these calls is given here.
# Assays:
# [1] = molecular target: T1, Aryl hydrocarbon receptor (Homo sapiens, UniProt P35869); experiment: Agonist activity at AhR signalling in human HaCaT cells assessed as increase in CYP1A1 mRNA expression by qRT-PCR analysis; type: cell-based; conditions: 10 µM, DDE = dose-dependent effect
# T1 sequence (P35869 whole entry): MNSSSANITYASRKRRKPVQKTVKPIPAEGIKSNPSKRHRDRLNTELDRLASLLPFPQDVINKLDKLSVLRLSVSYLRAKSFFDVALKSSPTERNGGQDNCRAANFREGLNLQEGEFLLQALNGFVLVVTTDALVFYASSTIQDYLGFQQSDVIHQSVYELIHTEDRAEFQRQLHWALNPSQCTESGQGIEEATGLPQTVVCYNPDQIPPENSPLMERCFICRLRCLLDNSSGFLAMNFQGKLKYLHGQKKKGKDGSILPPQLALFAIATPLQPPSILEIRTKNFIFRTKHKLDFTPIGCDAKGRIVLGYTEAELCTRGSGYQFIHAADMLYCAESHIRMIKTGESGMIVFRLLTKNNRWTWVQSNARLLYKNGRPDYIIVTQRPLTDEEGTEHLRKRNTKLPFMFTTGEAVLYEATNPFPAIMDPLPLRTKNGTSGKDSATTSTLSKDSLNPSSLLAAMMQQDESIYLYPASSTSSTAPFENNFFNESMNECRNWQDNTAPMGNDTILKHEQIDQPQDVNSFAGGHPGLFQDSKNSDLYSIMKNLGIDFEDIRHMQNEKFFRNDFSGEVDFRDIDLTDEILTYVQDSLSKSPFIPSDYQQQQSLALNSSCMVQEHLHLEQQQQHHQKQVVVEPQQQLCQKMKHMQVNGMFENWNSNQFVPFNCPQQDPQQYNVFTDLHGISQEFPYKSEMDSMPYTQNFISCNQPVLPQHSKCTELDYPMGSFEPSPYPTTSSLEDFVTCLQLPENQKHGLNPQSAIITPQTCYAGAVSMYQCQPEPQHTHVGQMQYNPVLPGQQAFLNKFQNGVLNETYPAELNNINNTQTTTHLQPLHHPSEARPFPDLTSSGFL
# [2] = molecular target: T1, Aryl hydrocarbon receptor; experiment: Agonist activity at AhR in human recombinant HepG2-Lucia AhR cell incubated for 24 hrs by luciferase reporter gene assay; type: cell-based
# [3] = Apparent permeability in MDCK cells at 50 uM incubated for 90 mins by LC/MS analysis; type: ADME, cell-based, Canis lupus familiaris; conditions: dog
# [4] = Solubility of the compound incubated for 48 hrs under shaking condition by LC/MS analysis; type: physicochemical
# [5] = n-Octanol/water partition coefficient, logD of the compound at 1 mg incubated for 48 hrs under shaking condition by LC/MS analysis; type: physicochemical
# [6] = molecular target: T1, Aryl hydrocarbon receptor; experiment: Induction of Ahr nuclear translocation from cytoplasm to nucleus in human HaCaT cells at 0.01 uM incubated for 1 hr by Western blot analysis; type: cell-based
# [7] = molecular target: T1, Aryl hydrocarbon receptor; experiment: Induction of Ahr nuclear translocation in human HaCaT cells at 10 uM incubated for 90 mins by immunofluorescence analysis; type: cell-based; conditions: 1.5 h
# [8] = molecular target: T2, Nuclear factor erythroid 2-related factor 2 (Homo sapiens) (UniProt Q16236); experiment: Activation of Nrf2 expression in human HaCaT cells up to 10 uM by qRT-PCR analysis; type: cell-based; conditions: filed as activator
# T2 sequence (whole entry): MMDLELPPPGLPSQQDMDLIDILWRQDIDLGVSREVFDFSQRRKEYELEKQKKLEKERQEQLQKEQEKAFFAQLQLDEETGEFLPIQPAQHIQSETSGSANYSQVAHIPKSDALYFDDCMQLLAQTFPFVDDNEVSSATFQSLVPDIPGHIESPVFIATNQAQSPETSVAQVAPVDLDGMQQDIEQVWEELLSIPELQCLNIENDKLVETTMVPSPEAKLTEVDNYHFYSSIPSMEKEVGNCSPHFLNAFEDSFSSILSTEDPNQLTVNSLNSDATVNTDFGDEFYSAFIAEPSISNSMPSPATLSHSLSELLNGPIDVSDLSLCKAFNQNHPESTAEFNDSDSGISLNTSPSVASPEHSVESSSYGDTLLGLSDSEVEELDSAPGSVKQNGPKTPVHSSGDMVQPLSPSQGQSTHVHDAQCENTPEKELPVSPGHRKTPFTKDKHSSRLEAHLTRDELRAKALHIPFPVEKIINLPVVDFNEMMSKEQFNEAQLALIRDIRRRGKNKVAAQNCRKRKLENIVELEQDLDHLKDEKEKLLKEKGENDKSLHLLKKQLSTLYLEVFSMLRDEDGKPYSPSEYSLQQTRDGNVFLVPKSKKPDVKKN
# [9] = molecular target: NAD(P)H dehydrogenase [quinone] 1 (Homo sapiens) (UniProt P15559); experiment: Activation of NQO1 expression in human HaCaT cells up to 10 uM by qRT-PCR analysis; type: cell-based; conditions: filed as activator
# [10] = molecular target: T1, Aryl hydrocarbon receptor; experiment: Induction of Ahr signalling in human HaCaT cells assessed as upregulation of FLG expression incubated for 48 hrs; type: cell-based
# [11] = Cytotoxicity against HEK293T cells assessed as reduction in cell viability measured after 72 hrs by MTT assay; type: toxicity, cell-based, HEK-293T; conditions: human
# [12] = Cytotoxicity against human LX2 cells assessed as reduction in cell viability measured after 72 hrs by MTT assay; type: toxicity, cell-based, LX-2
# [13] = molecular target: Voltage-gated inwardly rectifying potassium channel KCNH2 (Homo sapiens, UniProt Q12809); experiment: Inhibition of hERG channel in HEK293 cells by whole-cell patch clamp assay; type: toxicity, cell-based
# [14] = Cmax in Sprague-Dawley rat at 10 mg/kg, po measured up to 24 hrs by LC-MS/MS analysis; type: ADME, organism-based; set-up: time < 24 hrs, dose 10 mg/kg, route po; conditions: in vivo
# [15] = AUC (0 to infinity) in Sprague-Dawley rat at 5 mg/kg, iv measured up to 24 hrs by LC-MS/MS analysis; type: ADME, organism-based; set-up: dose 5 mg/kg, time < 24 hrs, route iv; conditions: in vivo
# [16] = AUC (0 to infinity) in Sprague-Dawley rat at 10 mg/kg, po measured up to 24 hrs by LC-MS/MS analysis; type: ADME, organism-based; set-up: time < 24 hrs, dose 10 mg/kg, route po; conditions: in vivo
# [17] = Half life in Sprague-Dawley rat at 5 mg/kg, iv measured up to 24 hrs by LC-MS/MS analysis; type: ADME, organism-based; conditions: in vivo
# [18] = Half life in Sprague-Dawley rat at 10 mg/kg, po measured up to 24 hrs by LC-MS/MS analysis; type: ADME, organism-based; conditions: in vivo
# [19] = Clearance in Sprague-Dawley rat at 5 mg/kg, iv measured up to 24 hrs by LC-MS/MS analysis; type: ADME, organism-based; conditions: in vivo
# Mus musculus [20] = experiment: Anti-psoriatic activity in IMQ-induced BALB/c psoriasis mouse model assessed as reduction in IL-17a expression at 0.1 to 1 % treated topically by qRT-PCR analysis; type: functional, organism-based; conditions: dose 0.1-1 %
# Mus musculus [21] = experiment: Anti-psoriatic activity in IMQ-induced BALB/c psoriasis mouse model assessed as reduction in scaling at 0.1 to 1 % treated topically by H and E staining based analysis; type: functional, organism-based; conditions: dose 0.1-1 %
# Mus musculus [22] = experiment: Anti-psoriatic activity in IMQ-induced BALB/c psoriasis mouse model assessed as reduction in IL-17f expression at 5 to 20 mg/kg, po by qRT-PCR analysis; type: functional, organism-based; conditions: dose 5-20 mg/kg
# Mus musculus [23] = experiment: Anti-psoriatic activity in IMQ-induced BALB/c psoriasis mouse model assessed as reduction in erythema at 5 to 20 mg/kg, po by H and E staining based analysis; type: functional, organism-based; conditions: dose 5-20 mg/kg
# Sequence of NAD(P)H dehydrogenase [quinone] 1 (Homo sapiens) (P15559 whole entry): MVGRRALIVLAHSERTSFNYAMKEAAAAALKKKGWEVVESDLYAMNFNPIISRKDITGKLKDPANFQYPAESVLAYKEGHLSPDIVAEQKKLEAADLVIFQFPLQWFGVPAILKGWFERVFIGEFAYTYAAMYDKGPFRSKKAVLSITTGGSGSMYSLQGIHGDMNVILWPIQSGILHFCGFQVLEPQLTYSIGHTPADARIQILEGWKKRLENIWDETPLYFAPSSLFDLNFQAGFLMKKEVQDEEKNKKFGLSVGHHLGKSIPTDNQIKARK
# Sequence of Voltage-gated inwardly rectifying potassium channel KCNH2 (Q12809 whole entry): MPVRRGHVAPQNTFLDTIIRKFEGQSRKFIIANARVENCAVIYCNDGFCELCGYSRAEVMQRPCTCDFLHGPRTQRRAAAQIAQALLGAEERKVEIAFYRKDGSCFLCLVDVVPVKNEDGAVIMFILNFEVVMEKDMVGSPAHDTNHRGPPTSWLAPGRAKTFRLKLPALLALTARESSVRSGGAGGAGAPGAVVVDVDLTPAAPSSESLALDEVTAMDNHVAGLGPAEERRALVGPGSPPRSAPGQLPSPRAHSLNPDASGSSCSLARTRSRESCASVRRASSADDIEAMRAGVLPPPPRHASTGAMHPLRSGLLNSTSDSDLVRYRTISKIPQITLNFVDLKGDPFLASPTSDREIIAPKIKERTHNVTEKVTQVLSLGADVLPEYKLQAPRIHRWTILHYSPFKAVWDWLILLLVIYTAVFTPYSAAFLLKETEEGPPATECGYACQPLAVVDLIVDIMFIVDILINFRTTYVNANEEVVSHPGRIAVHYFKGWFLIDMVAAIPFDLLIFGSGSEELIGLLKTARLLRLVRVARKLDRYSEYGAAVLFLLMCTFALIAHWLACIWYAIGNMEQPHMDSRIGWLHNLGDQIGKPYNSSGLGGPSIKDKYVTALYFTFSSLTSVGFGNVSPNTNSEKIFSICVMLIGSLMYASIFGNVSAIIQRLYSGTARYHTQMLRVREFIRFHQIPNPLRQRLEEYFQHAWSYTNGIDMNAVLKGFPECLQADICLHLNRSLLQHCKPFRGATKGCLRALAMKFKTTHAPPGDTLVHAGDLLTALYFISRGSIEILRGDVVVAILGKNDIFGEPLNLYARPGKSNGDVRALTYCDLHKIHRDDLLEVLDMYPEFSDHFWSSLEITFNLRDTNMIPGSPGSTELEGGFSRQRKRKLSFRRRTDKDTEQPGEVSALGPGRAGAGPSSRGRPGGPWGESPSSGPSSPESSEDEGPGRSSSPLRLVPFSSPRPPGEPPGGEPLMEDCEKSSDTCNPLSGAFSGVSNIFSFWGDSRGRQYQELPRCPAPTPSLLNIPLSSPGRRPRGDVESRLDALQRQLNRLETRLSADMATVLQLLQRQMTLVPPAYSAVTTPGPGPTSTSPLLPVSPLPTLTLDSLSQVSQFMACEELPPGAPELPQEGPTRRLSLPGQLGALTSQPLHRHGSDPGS
smiles,measurement,setting,value
Brc1ccc(-c2nc3ccc(Br)cn3n2)cc1,Activity,[1],Dde
same,EC50,[2],0.03 nM
same,"Papp at 1.5 h, 50 µM",[3],3.49 ×10⁻⁶ cm/s
same,solubility thermodynamic at 48 h,[4],17.2 µg/mL
same,logD at 48 h,[5],2.97
same,Activity,[6],Active
same,Activity,[7],Active
same,Activity,[8],Active
same,Activity,[9],Active
same,Activity,[10],Active
same,IC50 at 72 h,[11],> 300 µM
same,IC50 at 72 h,[12],> 300 µM
same,IC50,[13],> 10 µM
same,Cmax,[14],685 ng/mL
same,AUC(0-inf),[15],4640 ng·h/mL
same,AUC(0-inf),[16],1420 ng·h/mL
same,half-life,[17],0.81 h
same,half-life,[18],6.97 h
same,clearance,[19],19 mL/min/kg
same,Activity,Mus musculus [20],Active
same,Activity,Mus musculus [21],Active
same,Activity,Mus musculus [22],Active
same,Activity,Mus musculus [23],Active
